# Values of other authors, collected in publication PMC11703669 (Clinical cancer research : an official journal of the …, 2025).
# Tested on: patients with R/R AML and a susceptible IDH1 mutation
# Conditions: cited from earlier work
structure (smiles),measurement,setting,value
"N#Cc1ccnc(N2C(=O)CC[C@H]2C(=O)N(c2cncc(F)c2)[C@H](C(=O)NC2CC(F)(F)C2)c2ccccc2Cl)c1 [Ivosidenib, ivosidenib]",CR + CRh rate,R/R AML with susceptible IDH1 mutation,33%
same,"differentiation syndrome, all grades",,19%
same,"differentiation syndrome, grade 3 or higher",,13%
same,median duration of response,,8.2 months
same,rate of conversion of TD to TI,,37%
same,rate of ALT elevation,patients with R/R AML,15%
same,rate of AST elevation,patients with R/R AML,27%
same,rate of all grade QTc prolongation,patients with R/R AML,26%
